Experimental data as given in patent US7838533B2, “Azaindole inhibitors of MTP and ApoB” (Merck Patent GmbH, priority 2004, dated 2010).

Legend:
[1] = molecular target: T1, microsomal triglyceride transfer protein (MTP) (Mesocricetus auratus, UniProt P55158); experiment: Inhibition of MTP activity: transfer of [3H]-triolein from donor liposomes to biotinylated LDL, SPA; format: biochemical; details: MTP from golden hamster liver; incubation 18-24 hours at 37° C.
T1 construct: The supernatant comprising the soluble MTP is dialysed; from tissue; host or cells: golden hamster liver microsomes, deoxycholate-solubilised supernatant
T1 sequence (P55158 19-895): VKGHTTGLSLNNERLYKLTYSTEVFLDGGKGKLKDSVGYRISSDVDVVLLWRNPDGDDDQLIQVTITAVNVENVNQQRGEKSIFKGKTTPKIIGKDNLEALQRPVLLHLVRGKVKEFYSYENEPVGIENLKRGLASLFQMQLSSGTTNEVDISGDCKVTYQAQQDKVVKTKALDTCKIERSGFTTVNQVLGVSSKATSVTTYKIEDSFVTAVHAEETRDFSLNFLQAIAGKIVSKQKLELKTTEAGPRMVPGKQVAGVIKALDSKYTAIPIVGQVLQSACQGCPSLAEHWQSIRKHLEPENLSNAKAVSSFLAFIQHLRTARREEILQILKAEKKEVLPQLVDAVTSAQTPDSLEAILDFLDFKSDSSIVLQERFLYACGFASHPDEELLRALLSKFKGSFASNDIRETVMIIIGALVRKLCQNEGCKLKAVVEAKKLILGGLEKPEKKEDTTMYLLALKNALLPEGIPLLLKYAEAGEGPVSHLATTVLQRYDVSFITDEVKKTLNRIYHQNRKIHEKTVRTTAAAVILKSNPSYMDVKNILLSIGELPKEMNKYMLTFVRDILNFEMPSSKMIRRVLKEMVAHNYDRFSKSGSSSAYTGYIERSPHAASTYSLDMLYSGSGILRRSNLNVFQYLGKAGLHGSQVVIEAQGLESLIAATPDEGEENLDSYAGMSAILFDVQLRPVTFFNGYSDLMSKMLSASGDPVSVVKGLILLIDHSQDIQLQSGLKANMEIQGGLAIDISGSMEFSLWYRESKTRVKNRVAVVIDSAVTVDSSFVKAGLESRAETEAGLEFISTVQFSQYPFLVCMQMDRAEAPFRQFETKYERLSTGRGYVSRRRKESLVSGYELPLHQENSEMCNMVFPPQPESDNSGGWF
Experimental: The inhibition of the activity of microsomal triglyceride transfer protein (MTP) was tested by using the following operating protocol.
The inhibition of MTP activity with a compound can be quantified by observing the inhibition of the transfer of a labelled triglyceride, from a donor particle to an acceptor particle, in the presence of MTP. The procedure for the preparation of MTP is based on the method by Wetterau and Zilversmit (Biochem. Biophys. Acta (1986) 875, 610). A few grams of golden hamster liver are taken and then rinsed several times in a 250 mM sucrose solution at 0° C. All the following steps proceed at +4° C. A homogenate at a concentration of 50% in 250 mM sucrose is prepared using a Teflon mill and then centrifuged for 10 minutes at 10 000×g at +4° C. The supernatant is then centrifuged at 105 000×g for 75 minutes at +4° C. The supernatant is discarded and the microsomal pellet is taken up in 3 ml (per g of starting liver) of Tris/HCl 150 mM pH 8.0. 1-ml aliquot fractions are stored at −80° C. until the time of use.
After thawing a fraction of microsomes (1 ml), 12 ml of refrigerated Tris/HCl 50 mM, KCl 50 mM, MgCl2 5 mM pH 7.4 buffers and 1.2 ml of deoxycholate (0.54% in water) are added. After incubation for 30 minutes at +4° C. with gentle agitation, the suspension is centrifuged at […] for 75 minutes. […]
The reaction mixture is prepared in untreated ½ well white plates (Corning Costar) by addition, in the following order, of: 5 μl of HEPES 50 mM, NaCl 150 mM, BSA 0.1% (w/v), 0.05% sodium azide (w/v), pH 7.4 buffer; 5 μl of liposomes; 5 μl of LDL-biot; 5 μl of test products in DMSO; 5 μl of MTP. After incubation for 18-24 hours at 37° C., the reaction is stopped adding 100 μl of Amersham SPA (Scintillation Proximity Assay) beads coupled to streptavidin, and the radioactivity is counted using a Top Count (Packard) machine at least one hour later. The inhibition of the transfer of the triglycerides with a compound is reflected by a reduction in the transferred radioactivity. […]

[2] = system: apo B secretion in HepG2 cells; experiment: Inhibition of ApoB secretion in HepG2 cells, sandwich ELISA; format: cell-based; details: 24 hours incubation, ELISA specific for human apo B
Experimental: The activity of a compound according to the invention can be evaluated by measuring the inhibition of apo B secretion in HepG2 cells.
The HepG2 cells (ECACC No. 85011430) are used as model in the study of the in vitro hepatic secretion of lipoproteins (Dixon J. and Ginsberg H., J. Lipid. Res., 1993, 34, 167-179).
The HepG2 cells are cultured in Dulbecco's modified Eagle's medium comprising 10% foetal calf serum (DMEM and FBS-Gibco) in 96-well plates under an atmosphere of 5% carbon dioxide for 24 hours (about 70% confluence).
The test compounds are dissolved at a concentration of 2 or 10 mM in dimethyl sulfoxide (DMSO). Serial dilutions (1:3.16) are made in DMSO and are added (1:200—Robot Multimek Beckman) to the growth medium (200 μL) and then finally incubated for 24 hours in the various wells containing the HepG2 cells.
The 24-hour culture supernatant diluted to 1:5 (phosphate-buffered saline: PBS comprising 1% bovine serum albumin) is tested according to a sandwich-ELISA method specific for human apo B.
The results are expressed in terms of IC50, i.e. the concentration that produces a 50% inhibition of apo B secretion in the HepG2 cells.

Row | IC50 [1] [nM] | IC50 [2] [nM] | Compound
1 | 529 | 3 | CS(=O)(=O)c1ccc(CNC(=O)C(CCCCn2cc(-c3ccccc3)c3cccnc32)C2CCCCC2)cc1 (stereo not drawn)
2 | 175 | 15 | O=C(NCc1ccccc1)C(CCCCn1cc(-c2ccccc2)c2cccnc21)C1CCCCCC1 (stereo not drawn)
3 | 381 | 18 | O=C(NCc1ccncc1)C(CCCCCn1cc(-c2ccccc2)c2cccnc21)C1CCCC1 (stereo not drawn)
